For two molecules, inhibition, IC50 and Kd results are on record in article PMC2871279 (Nature, 2009).

The inhibition is the change of the read-out against control, counted positive when it falls. The term IC50 denotes the concentration needed to halve the response being measured. A higher IC50 goes with a need for much substance. What is called Kd is a measure of binding affinity in units of concentration. A higher Kd goes with lower affinity.

Assay [1] addresses T1, dvUT (Nitratidesulfovibrio vulgaris, UniProt Q72CX3).
T1 sequence (Q72CX3 1-337): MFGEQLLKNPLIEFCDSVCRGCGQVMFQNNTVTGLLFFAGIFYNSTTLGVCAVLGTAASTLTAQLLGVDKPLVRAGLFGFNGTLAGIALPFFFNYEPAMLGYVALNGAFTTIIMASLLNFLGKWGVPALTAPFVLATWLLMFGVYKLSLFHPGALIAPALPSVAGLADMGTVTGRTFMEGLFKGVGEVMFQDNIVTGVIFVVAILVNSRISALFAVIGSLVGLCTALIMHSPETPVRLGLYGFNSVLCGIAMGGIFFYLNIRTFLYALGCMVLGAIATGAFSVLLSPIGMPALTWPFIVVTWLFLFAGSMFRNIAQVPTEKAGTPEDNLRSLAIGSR
As to the kind of experiment: […]-urea uptake in Xenopus oocytes. The class given is cell-based. Particulars: read-out: % inhibition at 1 mM.

The target of another assay is T2, human UT-B (Homo sapiens, UniProt Q13336).
T2 sequence (Q13336 1-389): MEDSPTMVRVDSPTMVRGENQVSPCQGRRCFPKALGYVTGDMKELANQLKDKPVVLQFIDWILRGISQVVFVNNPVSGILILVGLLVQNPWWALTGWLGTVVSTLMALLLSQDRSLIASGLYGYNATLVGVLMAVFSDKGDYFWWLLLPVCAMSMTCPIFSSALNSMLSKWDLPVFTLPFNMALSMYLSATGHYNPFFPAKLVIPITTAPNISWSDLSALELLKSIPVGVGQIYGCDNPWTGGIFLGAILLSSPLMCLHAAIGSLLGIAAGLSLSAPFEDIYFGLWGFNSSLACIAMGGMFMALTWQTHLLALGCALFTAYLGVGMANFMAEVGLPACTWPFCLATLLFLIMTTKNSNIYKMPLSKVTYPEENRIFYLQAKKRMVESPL
As to the kind of experiment: […]-urea uptake in Xenopus oocytes. It counts as cell-based. Particulars: read-out: % inhibition at 1 mM.

In assay [2] the target is T1, dvUT. As to the kind of experiment: SPA isotopic dilution of […]-urea. The class given is binding.
For assay [3], the target named is T1, dvUT. Description: scintillation proximity saturation binding, Hill fit. (In general: Scintillation proximity formats need no separation of bound from free tracer.)

As for `O=C(CCc1ccc(O)cc1)c1c(O)cc(O)cc1O` [phloretin], the results for the inhibition at 1000 µM on dvUT [1] and on human UT-B were 87% and 86%, respectively.
Turning to `NC(N)=O` [urea], the IC50 against dvUT [2] turned out to be 2.3 ± 0.7 mM. The same molecule displayed a Kd at dvUT [3] of 2.3 ± 0.14 mM.
